Results: the supplement of paper PMC9663587

How the values were obtained:
[1] = compound: CN(C)CC[C@H](CSc1ccccc1)Nc1ccc(S(=O)(=O)NC(=O)c2ccc(N3CCN(Cc4ccccc4-c4ccc(Cl)cc4)CC3)cc2)cc1[N+](=O)[O-] [ABT-737]
[2] = compound: CCNC(=O)c1noc(-c2cc(C(C)C)c(O)cc2O)c1-c1ccc(CN2CCOCC2)cc1 [Luminespib/NVP-AUY922]
[3] = compound: COc1cc2nccc(Oc3ccc(NC(=O)C4(C(=O)Nc5ccc(F)cc5)CC4)cc3)c2cc1OC [Cabozantinib]
[4] = compound: COc1ccc2c(c1)[C@]1(C[C@H]1c1ccc3c(/C=C/c4ccc(CN5C[C@@H](C)O[C@@H](C)C5)cc4)n[nH]c3c1)C(=O)N2
[5] = compound: CN(C)C/C=C/C(=O)NC1=CC=C(C=C1)C(=O)NC2=CC=CC(=C2)NC3=NC=NC(=C3)C4=CNC5=CC=CC=C54 [THZ-P1-2]
[6] = compound: CC(=O)O[C@H]1C(=O)[C@@]2(C)[C@H]([C@H](OC(=O)c3ccccc3)[C@]3(O)C[C@H](OC(=O)[C@H](O)[C@@H](NC(=O)c4ccccc4)c4ccccc4)C(C)=C1C3(C)C)[C@]1(OC(C)=O)CO[C@@H]1C[C@@H]2O [Paclitaxel]
[7] = compound: C=CCn1c(=O)c2cnc(Nc3ccc(N4CCN(C)CC4)cc3)nc2n1-c1cccc(C(C)(C)O)n1 [AZD1775]
[8] = compound: C[C@@H]1COCCN1c1cc(C2([S@](C)(=N)=O)CC2)nc(-c2cc[nH]c3nccc2-3)n1 [AZD6738]
[9] = compound: CS(=O)(=O)N1CCN(Cc2cc3nc(-c4cccc5[nH]ncc45)nc(N4CCOCC4)c3s2)CC1 [Pictilisib/GDC0941]
[10] = compound: Cc1nn(C)c(COc2ccc(N3CCN(S(=O)(=O)N(C)C)CC3)cc2)c1-c1cccc2c(CCCOc3cccc4ccccc34)c(C(=O)O)n(CCN3CCOCC3)c12
[11] = compound: CCc1cnn2c(NCc3ccc[n+]([O-])c3)cc(N3CCCC[C@H]3CCO)nc12
[12] = compound: CCN1CCN(Cc2ccc(Nc3ncc(F)c(-c4cc(F)c5nc(C)n(C(C)C)c5c4)n3)nc2)CC1
[13] = compound: CN1CC[C@H](c2c(O)cc(O)c3c(=O)cc(-c4ccccc4Cl)oc23)[C@H](O)C1 [Flavopiridol]
[14] = compound: CC1=CN2C(=O)C=C(N=C2C(=C1)C(C)NC3=CC=CC=C3)N4CCOCC4 [TGX221]
[15] = compound: NC1(C(=O)N[C@@H](CCO)c2ccc(Cl)cc2)CCN(c2nc[nH]c3nccc2-3)CC1 [AZD5363]
[16] = compound: Nc1cc(C(F)(F)F)c(-c2cc(N3CCOCC3)nc(N3CCOCC3)n2)cn1 [Buparlisib/NVP-BKM120]
[17] = compound: CC1(CCN(CC1)C2=CN=C(C(=N2)N)C3=C(C(=CC=C3)Cl)Cl)N [SHP099]
[18] = compound: CN(C)C(=O)c1cc2cnc(Nc3ccc(N4CCNCC4)cn3)nc2n1C1CCCC1 [LEE011/Ribociclib]
[19] = compound: COc1cc2c(Oc3ccc4[nH]c(C)cc4c3F)ncnc2cc1OCCCN1CCCC1 [Cediranib/AZD2171]
[20] = compound: CN1CCN(CCOc2cc(OC3CCOCC3)c3c(Nc4c(Cl)ccc5c4OCO5)ncnc3c2)CC1 [Saracatinib/AZD0530]
[21] = compound: CN(C)C/C=C/C(=O)Nc1ccc(C(=O)Nc2cccc(Nc3ncc(Cl)c(-c4c[nH]c5ccccc45)n3)c2)cc1 [THZ1]
[22] = compound: CC(C)Nc1cc(-c2c[nH]c(C(=O)N[C@H](CO)c3cccc(Cl)c3)c2)c(Cl)cn1 [BVD523]
[23] = compound: C1=CC(=CC(=C1)N2C(=O)C=CC3=CN=C4C=CC(=CC4=C32)C5=CN=C(C=C5)N)C(F)(F)F [Torin2]
[24] = compound: CNc1nc(-c2ccc3c(N)n[nH]c3c2)cc(N2C[C@@H](C(=O)NC3CCCCC3)CC[C@H]2C)n1
[25] = compound: CCCCOc1c(C(=O)c2c(F)cc(C)cc2F)c[nH]c2nncc1-2
[26] = compound: O=C1NC(=O)[C@@H](c2cn3c4c(cccc24)CCC3)[C@@H]1c1c[nH]c2ccccc12 [Tivantinib/ARQ197]
[27] = compound: Cc1nc(NC(=O)N2CCC[C@H]2C(N)=O)sc1-c1ccnc(C(C)(C)C(F)(F)F)c1 [Alpelisib/BYL719]
[28] = compound: NC(=O)Nc1cc(-c2cccc(F)c2)sc1C(=O)N[C@H]1CCCNC1 [AZD7762]
[29] = compound: CC(C)NC[C@@H](C(=O)N1CCN(c2ncnc3c2[C@H](C)C[C@H]3O)CC1)c1ccc(Cl)cc1 [Ipatasertib/GDC0068]
[30] = compound: O=C(c1cc(Cc2n[nH]c(=O)c3ccccc23)ccc1F)N1CCN(C(=O)C2CC2)CC1 [Olaparib/AZD2281]
[31] = compound: CCC1=CN=CN=C1N2CCN(CC2)CC3=NC4=C(N3)C=C(C=C4)C(F)(F)F
[32] = compound: C1=CC2=C(C=CC(=C2)C=C3C(=O)NC(=NCC4=CC=CS4)S3)N=C1 [R0-3306]
[33] = compound: CN1CCN(C(=O)c2ccc3cc(CCNc4ncnc5ccc(C#N)cc45)ccc3c2)CC1 [senexin b]
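Note: breast cancer and non-malignant breast epithelial cell lines, Deep Dye Drop or Dye Drop imaging, nine half-log doses, GR normalized to time-zero plates and DMSO-only controls.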

| Cell Line | GR50, 72 h [1] [µM] | GR50, 72 h [2] [µM] | GR50, 72 h [3] [µM] | GR50, 72 h [4] [µM] | GR50, 72 h [5] [µM] | GR50, 72 h [6] [µM] | GR50, 72 h [7] [µM] | GR50, 72 h [8] [µM] | GR50, 72 h [9] [µM] | GR50, 72 h [10] [µM] | GR50, 72 h [11] [µM] | GR50, 72 h [12] [µM] | GR50, 72 h [13] [µM] | GR50, 72 h [14] [µM] | GR50, 72 h [15] [µM] | GR50, 72 h [16] [µM] | GR50, 72 h [17] [µM] | GR50, 72 h [18] [µM] | GR50, 72 h [19] [µM] | GR50, 72 h [20] [µM] | GR50, 72 h [21] [µM] | GR50, 72 h [22] [µM] | GR50, 72 h [23] [µM] | GR50, 72 h [24] [µM] | GR50, 72 h [25] [µM] | GR50, 72 h [26] [µM] | GR50, 72 h [27] [µM] | GR50, 72 h [28] [µM] | GR50, 72 h [29] [µM] | GR50, 72 h [30] [µM] | GR50, 72 h [31] [µM] | GR50, 72 h [32] [µM] | GR50, 72 h [33] [µM] |
| --- | --- | --- | --- | --- | --- | --- | --- | --- | --- | --- | --- | --- | --- | --- | --- | --- | --- | --- | --- | --- | --- | --- | --- | --- | --- | --- | --- | --- | --- | --- | --- | --- | --- |
| ZR751 | > 10 | 0.0228 | > 10 | 0.0085 | 8.94 | 0.0088 | 6.23 | > 10 | 0.672 | > 10 | 0.035 | 0.0666 | 0.35 | 0.371 | > 10 | 1.15 | > 10 | 5.42 | > 10 | 3.66 | 0.428 | > 10 | 0.0172 | 5.91 | > 10 | 0.657 | > 10 | 2.29 | > 10 | > 10 | > 10 | > 10 | > 10 |
| HTERT_HME1 | – | 0.00855 | 3.24 | 0.0011 | 4.1 | 0.00317 | 0.302 | 5.78 | 2.8 | 0.899 | 0.0121 | 0.199 | 0.112 | > 10 | > 10 | 1.15 | > 10 | 1.2 | 7.57 | 7.23 | 0.00442 | 0.213 | 0.0253 | > 10 | 0.0012 | 0.0344 | 6.04 | 0.259 | > 10 | > 10 | 5.4 | 4.01 | > 10 |
